From US20140221639A1, “RADIOLABELED NUCLEOSIDE ANALOGUE, AND PREPARATION METHOD AND USE THEREOF” (Institute of Nuclear Energy Research Atomic Energy Council, …, priority 2011, published 2014)
Several values for one entry are separate records, joined by “and”; a condition that tells them apart may be missing. Identical values can stand only once. Like-named read-outs stand apart in the source and are kept apart here.

How the values were obtained:
[1] = in mice, as shown in literatures; cited from earlier work
[2] = in human body, as shown in literatures; cited from earlier work
[3] = literature; cited from earlier work
[4] = system: NG4TL4-WT tumor; assay: Biodistribution study in tumor-bearing mice; type: in vivo, FVB/N mice; conditions: for Biodistribution Blood / Biodistribution Bone / Biodistribution Kidney / Biodistribution Large Intestine / Biodistribution Liver / Biodistribution Lung / Biodistribution Marrow / Biodistribution Pancreas / Biodistribution Stomach / Biodistribution Tumor / Biodistribution Heart / Biodistribution Spleen / Biodistribution Small Intestine / Biodistribution Muscle: 80~90 μCi tail vein, FVB/N mice with NG4TL4-WT tumor
Description: […] Tumor and 13 other tissures (blood, heart, lung, liver, stomach, small intestine, large intestine, spleen, pancreas, kidney, bone, marrow, and muscle) were removed, rinsed, weighed, and determined for radioactivity with a γ scintilation counter. Uptake of the radioactive trancers in the tissues (counts per min) was calibrated against decay, normalizedto sample weight, and expressed as percentages of injected dosage per gram of tissue (% ID/g) and aggregation ratio of tumor to blood.

[5] = healthy FVB/N mice, intravenous 200 μCi, blood radioactivity
[6] = system: NG4TL4 sarcoma cells; assay: Study on incorporation in DNA; type: cell-based; conditions: 1 μCi/mL medium, 0.5-8 h
Protocol: DNA was extracted with Genomic DNA Mini Kit (Geneaid Biotech Ltd., Taiwan). NG4TL4 cell lines were harvested and inoculated into a petri dish at 2×10^6. […] At 0.5, 1, 2, 4 and 8 h after incubation, the medium was removed, and the cells was washed two times with ice-cold PBS, and then sheared with trypsin and collected to a centrifuge tube for centrifugation (at […] for 1 min). The supernatant was removed, while 50 μL remaining buffer was left to keep the cells in suspension. 300 μL cell lysis buffer was added to the sample and uniformly mixed, the cells was cultured in a water bath at 60° C. for a sereral minutes till the solution was transparent (the sample was inversed once every 3 min). 2 μL RNAse (25 mg/mL) was added to the sample and uniformly mixed, after 5-min incubation at room temperature, 100 μL protein removal buffer was added to the sample, uniformly mixed immediately, and centrifuged for 3 min at full speed (14000 rpm) after 5-min incubation on ice. The resulting solution was transferred as a suspension to another tube, and isopropanol was added and thoroughly mixed. […] In the test, DNA purity was determined at absorption wavelengths of 260 nm and 280 nm, and the ratio of absorbances (OD260/OD280) was about 1.7.

[7] = system: LL/2 cells; assay: Cellular uptake test (ratio of cell to medium); type: cell-based; conditions: 1, 2, 4 and 8 h
Protocol: (§1) 2×10^6 cells was inoculated in a 15 cm^2 dish containing 14 mL medium supplemented with 10% FBS. […] At specified time points (using I-131 tracer at 1, 2, 4 and 8_h), the cells on the dish was harvested by using a cell scraper. Then, a cell suspension was transferred to a 15 mL centrifuge tube and centrifuged (at 3500 rpm) for 2 min. After centrifugation, 100 μL centrifugate was collected to a preweighed counting tube and directly poured into a maintained medium. Cell pellets were frozen with dry ice, and further collected into another weighed counting tube. […] Accumulation of activity of radioactive trancer in cell in vitro is represented by a radio of cell to medium:
(§2) Uptake experimental results of the two radioactive nucleoside analogues [^131I]IUdR and [^131I]ICdR in cells are as shown in FIGS. 4((a), (b)).

[8] = system: NG4TL4 cells; assay: Cellular uptake test (ratio of cell to medium); type: cell-based; conditions: 1, 2, 4 and 8 h
Protocol: as §1, §2

[9] = Analysis of metabolites in blood and urine through NP-TLC; type: in vivo, FVB/N mice; conditions: NP-TLC CH2Cl2/MeOH = 15/1
Protocol: Blood samples were obtained by heart puncture, and then centrifuged at 13,000 rpm for 10 min. Then, the supernatant (about 300 μL) was placed in a 1.5 mL centrifuge tube containing equal amount of ethanol, and then centrifuged again to obtain the serum.

[10] = 5 min after ^131I-IUdR at tail vein
[11] = 15 min after ^131I-IUdR at tail vein

## O=c1[nH]c(=O)n([C@H]2C[C@H](O)[C@@H](CO)O2)cc1I [IUdR]
[1]
  in vivo physiological half life: 7 min
[2]
  in vivo physiological half life: 5 min

## Cc1cn([C@@H]2O[C@H](CO)[C@@H](O)[C@@H]2[18F])c(=O)[nH]c1=O [[^18F]FMAU, 2-[^18F]fluoro-5-methyl-1-β-D-arabinofuranosyluracil]
[3]
  stability in the organism: very stable

## O=c1[nH]c(=O)n([C@H]2C[C@H](O)[C@@H](CO)O2)cc1[131I] [^131I-IUdR, 5-[^124/131I]iodo-2′-deoxyuridine, reference compound]
[4]; 5 min
  Biodistribution Blood: 13.62 ± 1.19 % ID/g
  Biodistribution Bone: 233 ± 035 % ID/g
  Biodistribution Kidney: 18.81 ± 2.44 % ID/g
  Biodistribution Large Intestine: 7.18 ± 038 % ID/g
  Biodistribution Liver: 15.99 ± 2.06 % ID/g
  Biodistribution Lung: 933 + 0.69 % ID/g
  Biodistribution Marrow: 3.98 ± 1.44 % ID/g
  Biodistribution Pancreas: 6.43 ± 0.41 % ID/g
  Biodistribution Stomach: 7.04 ± 0.98 % ID/g
  Biodistribution Tumor: 635 ± 1.93 % ID/g
[4]; 30 min
  Biodistribution Blood: 835 ± 132 % ID/g
  Biodistribution Bone: 2.55 ± 030 % ID/g
  Biodistribution Heart: 3.15 ± 0.4S
  Biodistribution Kidney: 6.95 ± 0.77 % ID/g
  Biodistribution Large Intestine: 5.43 ± 0.88 % ID/g
  Biodistribution Liver: 3.73 ± 0.57 % ID/g
  Biodistribution Lung: 5.80 ± 0.42 % ID/g
  Biodistribution Marrow: 538 ± 1.57 % ID/g
  Biodistribution Pancreas: 5.52 ± 0.84 % ID/g
  Biodistribution Spleen: 6.79 ± 1.66 % ID/g
  Biodistribution Stomach: 24.71 ± 3.20 % ID/g
  Biodistribution Tumor: 6.11 ± 0.97 % ID/g
[4]; 1 h
  Biodistribution Blood: 6.41 ± 036 % ID/g
  Biodistribution Bone: 1.59 ± 039 % ID/g
  Biodistribution Heart: 2.43 ± 0.56 % ID/g
  Biodistribution Large Intestine: 4.73 ± 1.16 % ID/g
  Biodistribution Liver: 2.68 ± 0.48 % ID/g
  Biodistribution Marrow: 9.86 ± 4.50 % ID/g
  Biodistribution Pancreas: 2.84 ± 0.57 % ID/g
  Biodistribution Small Intestine: 6.80 ± 0.81 % ID/g
  Biodistribution Spleen: 4.18 ± 035 % ID/g
  Biodistribution Tumor: 6.61 ± 033 % ID/g
[4]; 2 h
  Biodistribution Blood: 4.19 ± 0.60 % ID/g
  Biodistribution Bone: 132 ± 033 % ID/g
  Biodistribution Liver: 1.67 ± 0.18 % ID/g
  Biodistribution Lung: 2.86 ± 0.55 % ID/g
  Biodistribution Marrow: 6.88 ± 1.19 % ID/g
  Biodistribution Muscle: 0.93 ± 0.14 % ID/g
  Biodistribution Pancreas: 2.50 ± 0.58 % ID/g
  Biodistribution Small Intestine: 6.77 ± 1.50 % ID/g
  Biodistribution Spleen: 3.60 ± 0.40 % ID/g
  Biodistribution Stomach: 15.93 + 333 % ID/g
  Biodistribution Tumor: 5.63 ± 0.74 % ID/g
[4]; 4 h
  Biodistribution Blood: 1.96 ± 0.49 % ID/g
  Biodistribution Bone: 0.62 ± 0.29 % ID/g
  Biodistribution Heart: 0.88 ± 0.46 % ID/g
  Biodistribution Kidney: 1.77 ± 0.71 % ID/g
  Biodistribution Lung: 1.60 ± 0.71 % ID/g
  Biodistribution Marrow: 6.63 ± 3.84 % ID/g
  Biodistribution Muscle: 0.53 ± 0.26 % ID/g
  Biodistribution Pancreas: 1.18 ± 0.56 % ID/g
  Biodistribution Small Intestine: 4.76 ± 1.26 % ID/g
  Biodistribution Spleen: 1.86 ± 0.63 % ID/g
  Biodistribution Stomach: 4.49 ± 3.02 % ID/g
  Biodistribution Tumor: 3.97 ± 1.00 % ID/g
[4]; 8 h
  Biodistribution Blood: 0.48 ± 0.23 % ID/g
  Biodistribution Bone: 036 ± 0.12 % ID/g
  Biodistribution Heart: 0.19 ± 0.09 % ID/g
  Biodistribution Kidney: 0.56 ± 0.21 % ID/g
  Biodistribution Large Intestine: 1.78 ± 0.57 % ID/g
  Biodistribution Lung: 0.44 ± 0.21 % ID/g
  Biodistribution Marrow: 5.00 ± 1.59 % ID/g
  Biodistribution Muscle: 0.13 ± 0.03 % ID/g
  Biodistribution Small Intestine: 3.40 ± 0.60 % ID/g
  Biodistribution Tumor: 2.50 ± 0.79 % ID/g
[4]; mice
  excretion of drug and metabolites: mainly through the urinary system
[4]; tumor-bearing mice
  accumulation in organs (biodistribution and imaging): obviously accumulated in organs that rapidly proliferates
[5]
  Cmax: 18.91 ± 6.16 % ID/mL
  t1/2α: 4.8 ± 1.2 min
  t1/2β: 2.28 ± 0.90 h
[5]; listed as 131I-IudR
  Cmax: 18.91±6.16 % ID/mL
  t1/2α: 4.8 ± 1.2 min
  t1/2β: 2.28 ± 0.90 h
[6]
  incorporation into cells / radioactive accumulation in DNA with time: linearly incorporated
[7]
  uptake value over time: continuously increased with time
[8]
  uptake value over time: continuously increased with time
[9]; [10]
  ^131I-IU (%) in Blood: 3.65 ± 3.03%
  ^131I-IU (%) in Urine: 4.45 ± 3.03%
  ^131I-IUdR (%) in Blood: 25.23 ± 2.88%
  ^131I-IUdR (%) in Urine: 8.60 ± 2.88%
  ^131I-I^- (%) in Blood: 71.1% and 71.12 ± 5.83%
  ^131I-I^- (%) in Urine: 88.0% and 86.96 ± 5.83%
[9]; [11]
  ^131I-IU (%) in Blood: 1.58 ± 0.72%
  ^131I-IU (%) in Urine: 2.76 ± 1.23%
  ^131I-IUdR (%) in Blood: 6.42 ± 3.89%
  ^131I-IUdR (%) in Urine: 5.23 ± 2.05%
  ^131I-I^- (%) in Blood: 92.00 ± 4.51%
  ^131I-I^- (%) in Urine: 92.02 ± 3.27%
